Assay results as given in US20230103791A1 (GLAXOSMITHKLINE INTELLECTUAL PROPERTY DEVELOPMENT LIMITED, priority 2019, published 2023).
Where two headings read alike, the source gives them in different places.

Biological target: T1, human Nav1.8 (Homo sapiens, UniProt Q9Y5Y9)
T1 construct: expressed in transfected cells; host or cells: HEK293 (HEK293-Nav1.8)
Test: Nav1.8 sodium channels assay, QPatch 48 HTX electrophysiology in HEK293-Nav1.8 cells
Assay type: cell-based
Summary of the method: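 IC50 came from 6-8 point curves of P2 current amplitude, normalized to baseline and a positive reference, and corrected for run-down using vehicle-only wells. Automated patch clamp used HEK293-Nav1.8 (with Navβ1 and TREK1) at pH 7.4 outside and CsF-based solution inside. An 8 s inactivating step at −46 mV preceded the 0 mV test pulse, repeated at 0.07 Hz.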

[1] = at least one set of experimental runs, read-out: average pIC50 value against Nav1.8 (converted)
[2] = Table 1, HEK293-Nav1.8, QPatch 48 HTX, half inactivation state voltage protocol (V1/2), single run or average of two or more runs, read-out: Nav1.8 pIC50 (converted)

T1 sequence (Q9Y5Y9 whole entry): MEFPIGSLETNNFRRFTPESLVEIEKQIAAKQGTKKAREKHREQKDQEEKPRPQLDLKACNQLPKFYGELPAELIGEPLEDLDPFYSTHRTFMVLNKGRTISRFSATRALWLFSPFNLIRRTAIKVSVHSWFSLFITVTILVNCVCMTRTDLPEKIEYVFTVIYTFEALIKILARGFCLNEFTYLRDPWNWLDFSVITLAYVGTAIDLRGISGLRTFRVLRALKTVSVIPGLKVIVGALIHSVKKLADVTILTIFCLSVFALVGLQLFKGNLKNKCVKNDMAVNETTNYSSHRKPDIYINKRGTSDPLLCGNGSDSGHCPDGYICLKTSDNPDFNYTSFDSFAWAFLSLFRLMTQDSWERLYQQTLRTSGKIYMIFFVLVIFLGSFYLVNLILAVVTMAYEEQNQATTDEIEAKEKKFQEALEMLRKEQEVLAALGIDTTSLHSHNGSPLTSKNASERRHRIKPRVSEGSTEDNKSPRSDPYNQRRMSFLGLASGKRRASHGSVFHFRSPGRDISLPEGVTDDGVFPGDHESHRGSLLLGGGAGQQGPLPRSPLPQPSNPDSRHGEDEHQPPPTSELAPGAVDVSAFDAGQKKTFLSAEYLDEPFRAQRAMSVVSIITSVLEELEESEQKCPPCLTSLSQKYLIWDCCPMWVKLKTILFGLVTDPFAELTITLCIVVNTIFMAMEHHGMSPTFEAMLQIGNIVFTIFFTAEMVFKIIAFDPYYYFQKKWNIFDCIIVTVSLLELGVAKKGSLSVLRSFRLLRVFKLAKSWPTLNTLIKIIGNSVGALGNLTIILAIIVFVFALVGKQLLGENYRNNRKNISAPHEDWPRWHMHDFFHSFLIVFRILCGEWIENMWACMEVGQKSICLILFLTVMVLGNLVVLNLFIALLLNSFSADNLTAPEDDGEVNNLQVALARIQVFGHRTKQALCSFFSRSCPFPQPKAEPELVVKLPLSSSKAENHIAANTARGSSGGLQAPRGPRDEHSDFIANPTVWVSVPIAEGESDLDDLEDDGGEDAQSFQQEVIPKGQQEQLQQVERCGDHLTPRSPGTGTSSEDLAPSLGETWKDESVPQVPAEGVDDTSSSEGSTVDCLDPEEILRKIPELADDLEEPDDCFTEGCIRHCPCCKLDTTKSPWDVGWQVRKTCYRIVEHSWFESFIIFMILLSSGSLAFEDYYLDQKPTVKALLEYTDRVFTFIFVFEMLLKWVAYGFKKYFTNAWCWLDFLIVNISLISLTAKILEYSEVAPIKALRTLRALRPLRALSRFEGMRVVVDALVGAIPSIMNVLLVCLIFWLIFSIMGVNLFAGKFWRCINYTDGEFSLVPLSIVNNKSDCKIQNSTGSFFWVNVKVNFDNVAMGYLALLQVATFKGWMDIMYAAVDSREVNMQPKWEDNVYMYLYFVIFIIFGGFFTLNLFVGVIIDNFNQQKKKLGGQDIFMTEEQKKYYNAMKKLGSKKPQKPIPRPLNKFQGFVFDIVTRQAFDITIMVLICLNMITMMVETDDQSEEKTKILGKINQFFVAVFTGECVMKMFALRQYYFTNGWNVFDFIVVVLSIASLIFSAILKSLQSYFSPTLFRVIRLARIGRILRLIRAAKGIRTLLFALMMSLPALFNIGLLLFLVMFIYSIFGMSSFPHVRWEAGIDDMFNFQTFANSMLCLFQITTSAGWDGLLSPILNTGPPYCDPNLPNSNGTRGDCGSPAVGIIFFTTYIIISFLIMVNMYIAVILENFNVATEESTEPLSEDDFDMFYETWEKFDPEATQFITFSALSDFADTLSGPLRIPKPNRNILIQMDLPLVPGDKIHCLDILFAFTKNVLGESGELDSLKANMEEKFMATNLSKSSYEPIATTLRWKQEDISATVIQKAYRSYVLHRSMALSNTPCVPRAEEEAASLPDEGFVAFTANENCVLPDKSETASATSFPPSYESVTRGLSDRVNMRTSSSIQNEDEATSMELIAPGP
T1 sequence (Q07699 19-218 partner): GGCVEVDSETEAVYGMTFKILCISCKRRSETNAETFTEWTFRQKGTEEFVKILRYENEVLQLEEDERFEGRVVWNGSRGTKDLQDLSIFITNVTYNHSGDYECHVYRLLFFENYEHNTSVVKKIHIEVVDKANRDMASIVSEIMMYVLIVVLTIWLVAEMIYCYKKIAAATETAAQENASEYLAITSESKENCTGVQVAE

Row | SMILES | IC50 [1] [nM] | IC50 [2] [nM]
1 | Cc1cc(F)ccc1N1CN(c2ccc(=O)[nH]c2C)C(=O)c2cccc(Cl)c21 [Example 124, 8-chloro-1-(4-fluoro-2-methylphenyl)-3-(2-methyl-6-oxo-1,6-dihydropyridin-3-yl)-2,3-dihydroquinazolin-4(1H)-one] | 794 to 7940 | –
2 | Cc1cc(F)ccc1N1CN(c2ccc(=O)[nH]c2C)C(=O)c2cc(F)c(C(F)(F)F)cc21 [Example 110, 6-fluoro-1-(4-fluoro-2-methylphenyl)-3-(2-methyl-6-oxo-1,6-dihydropyridin-3-yl)-7-(trifluoromethyl)-2,3-dihydroquinazolin-4(1H)-one] | ≤ 100 | –
3 | Cc1cc(F)ccc1N1CN(c2ccc(=O)[nH]c2)C(=O)c2cc(C(F)(F)F)ccc21 [Example 215, 1-(4-Fluoro-2-methylphenyl)-3-(6-oxo-1,6-dihydropyridin-3-yl)-6-(trifluoromethyl)-2,3-dihydroquinazolin-4(1H)-one] | 126 to 631 | –
4 | COc1cc(F)ccc1N1CN(c2ccc(=O)[nH]c2)C(=O)c2ccc(C(F)(F)F)cc21 [drawing 264, 1-(4-fluoro-2-methoxyphenyl)-3-(6-oxo-1,6-dihydropyridin-3-yl)-7-(trifluoromethyl)-2,3-dihydroquinazolin-4(1H)-one] | – | 316
5 | CC(=O)Nc1cccc(N2CN(c3ccc(F)cc3C)c3cc(C(F)(F)F)ccc3C2=O)c1 [Example 5, N-(3-(1-(4-fluoro-2-methylphenyl)-4-oxo-7-(trifluoromethyl)-1,4-dihydroquinazolin-3(2H)-yl)phenyl)aceta-mide] | 794 to 7940 | –
6 | Cc1ccc2c(c1)C(=O)N(c1ccc(=O)[nH]c1C)CN2c1ccc(F)cc1C [Example 51, 1-(4-f1uoro-2-methylphenyl)-6-methyl-3-(2-methyl-6-oxo-1,6-dihydropyridin-3-yl)-2,3-dihydroquinazolin-4(1H)-one] | ≤ 100 | –
7 | Cc1[nH]c(=O)ccc1N1CN(c2ccc(F)cc2C(C)(C)C)c2ccc(Cl)cc2C1=O (single isomer, unassigned) [Example 293, 1-(2-(tert-Butyl)-4-fluorophenyl)-6-chloro-3-(2-methyl-6-oxo-1,6-dihydropyridin-3-yl)-2,3-dihydroquinazolin-4(1H)-one] | 126 to 631 | –
8 | Cc1[nH]c(=O)ccc1N1CN(c2cccc(F)c2C)c2ccc(C(F)(F)F)cc2C1=O [Example 120, 1-(3-fluoro-2-methylphenyl)-3-(2-methyl-6-oxo-1,6-dihydropyridin-3-yl)-6-(trifluoromethyl)-2,3-dihydroquinazolin-4(1H)-one] | ≤ 100 | –
9 | CCc1cc(F)ccc1N1CN(c2ccncc2C)C(=O)c2cc(Cl)c(C#N)cc21 [Example 243, 6-chloro-1-(2-ethyl-4-fluorophenyl)-3-(3-methylpyridin-4-yl)-4-oxo-1,2,3,4-tetrahydroquin-azoline-7-carbonitrile] | 126 to 631 | –
10 | Cc1[nH]c(=O)ccc1N1CN(c2ccc(F)cc2Br)c2ccc(C(F)(F)F)cc2C1=O [Example 142, 1-(2-bromo-4-fluorophenyl)-3-(2-methyl-6-oxo-1,6-dihydropyridin-3-yl)-6-(trifluoromethyl)-2,3-dihydroquinazolin-4(1H)-one] | ≤ 100 | –
11 | Cc1cc(F)ccc1N1CN(c2ccc(=O)[nH]c2C)C(=S)c2ccc(C(F)(F)F)cc21 [Example 214, 5-(1-(4-fluoro-2-methylphenyl)-4-thioxo-7-(trifluoromethyl)-1,4-dihydroquinazolin-3(2H)-yl)-6-methylpyridin-2(1H)-one] | ≤ 100 | –
12 | O=C1c2ccc(C(F)(F)F)cc2N(c2ccc(F)cc2)CN1c1ccc(=O)[nH]c1 [drawing 262, 1-(4-fluorophenyl)-3-(6-oxo-1,6-dihydropyridin-3-yl)-7-(trifluoromethyl)-2,3-dihydroquinazolin-4(1H)-one] | – | 398
13 | Cc1cc(F)ccc1N1CN(c2ccc(=O)[nH]c2C)C(=O)c2cc(Cl)ccc21 [drawing 293, 6-chloro-1-(4-fluoro-2-methylphenyl)-3-(2-methyl-6-oxo-1,6-dihydropyridin-3-yl)-2,3-dihydroquinazolin-4(1H)-one] | – | 10
14 | Cc1cc(F)ccc1N1CN(c2ccc(=O)[nH]c2C)C(=O)c2c1ccc(Cl)c2F [Example 79, 6-chloro-5-fluoro-1-(4-fluoro-2-methylphenyl)-3-(2-methyl-6-oxo-1,6-dihydropyridin-3-yl)-2,3-dihydroquinazolin-4(1H)-one] | ≤ 100 | –
15 | O=C1c2ccc(C(F)(F)F)cc2N(c2ccc(F)cc2)CN1c1ccc(=O)[nH]c1 [Example 144, 1-(4-Fluorophenyl)-3-(6-oxo-1,6-dihydropyridin-3-yl)-7-(trifluoromethyl)-2,3-dihydroquinazolin-4(1H)-one] | 126 to 631 | –
16 | Cc1cc(F)ccc1N1c2cc(C(F)(F)F)ccc2C(=O)N(c2ccc(=O)[nH]c2)C1C (stereo not shown) [Example 39, 1-(4-fluoro-2-methylphenyl)-2-methyl-3-(6-oxo-1,6-dihydropyridin-3-yl)-7-(trifluoromethyl)-2,3-dihydroquinazolin-4(1H)-one] | 794 to 7940 | –

Row | SMILES | IC50 [1] [nM] | IC50 [2] [nM]
17 | Cc1cc(F)ccc1N1CN(c2ccc(=O)[nH]c2C)C(=O)c2ccc(C(F)(F)F)cc21 [Example 35, 1-(4-Fluoro-2-methylphenyl)-3-(2-methyl-6-oxo-1,6-dihydropyridin-3-yl)-7-(trifluoromethyl)-2,3-dihydroquinazolin-4(1H)-one] | ≤ 100 | –
18 | Cc1cc(F)ccc1N1CN(c2cc(F)c(=O)[nH]c2C)C(=O)c2cc(C(F)(F)F)ccc21 [Example 131, 3-(5-fluoro-2-methyl-6-oxo-1,6-dihydropyridin-3-yl)-1-(4-fluoro-2-methylphenyl)-6-(trifluoromethyl)-2,3-dihydroquinazolin-4(1H)-one] | ≤ 100 | –
19 | Cc1ncccc1N1CN(c2ccc(=O)[nH]c2C)C(=O)c2ccc(C(F)(F)F)cc21 [Example 46, 3-(2-methyl-6-oxo-1,6-dihydropyridin-3-yl)-1-(2-methylpyridin-3-yl)-7-(trifluoromethyl)-2,3-dihydroquinazolin-4(1H)-one] | 794 to 7940 | –
20 | Cc1[nH]c(=O)ccc1N1CN(c2ccc(F)cc2)c2cc(C(F)(F)F)ccc2C1=O [Example 147, 1-(4-fluorophenyl)-3-(2-methyl-6-oxo-1,6-dihydropyridin-3-yl)-7-(trifluoromethyl)-2,3-dihydroquinazolin-4(1H)-one] | 126 to 631 | –
21 | Cc1[nH]c(=O)ccc1N1CN(c2ccc(F)cc2C(C)(C)C)c2cc(C(F)(F)F)ccc2C1=O [Example 114, 1-(2-(tert-butyl)-4-fluorophenyl)-3-(2-methyl-6-oxo-1,6-dihydropyridin-3-yl)-7-(trifluoromethyl)-2,3-dihydroquinazolin-4(1H)-one] | ≤ 100 | –
22 | Cc1cc(F)ccc1N1CN(c2ccnc(C(N)=O)c2)C(=O)c2c1ccc(Cl)c2F [Example 8, 4-(6-chloro-5-fluoro-1-(4-fluoro-2-methylphenyl)-4-oxo-1,4-dihydroquinazolin-3(2H)-yl)picolinamide] | 794 to 7940 | –
23 | Cc1cc(F)ccc1N1CN(c2ccc(=O)[nH]c2C)C(=O)c2c(Cl)cccc21 [Example 88, 5-chloro-1-(4-fluoro-2-methylphenyl)-3-(2-methyl-6-oxo-1,6-dihydropyridin-3-yl)-2,3-dihydroquinazolin-4(1H)-one] | 126 to 631 | –
24 | Cc1cc(F)ccc1N1CN(C2CCC(=O)NC2)C(=O)c2ccc(C(F)(F)F)cc21 (stereo not shown) [Example 268] | 126 to 631 | –
25 | Cc1cc(F)ccc1N1CN([C@H]2CCC(=O)N[C@@H]2C)C(=O)c2cc(C(F)(F)F)ccc21 [Example 33, 1-(4-fluoro-2-methylphenyl)-3-((2R,3S)-2-methyl-6-oxopiperidin-3-yl)-6-(trifluoromethyl)-2,3-dihydroquinazolin-4(1H)-one] | ≤ 100 | –
26 | Cc1cc(F)ccc1N1CN(c2cc[nH]c(=O)c2)C(=O)c2ccc(C(F)(F)F)cc21 [Example 157, 1-(4-fluoro-2-methylphenyl)-3-(2-oxo-1,2-dihydropyridin-4-yl)-7-(trifluoromethyl)-2,3-dihydroquinazolin-4(1H)-one] | 126 to 631 | –
27 | CNc1cc(F)ccc1N1CN(c2ccc(=O)[nH]c2C)C(=O)c2cc(Cl)ccc21 [Example 201, 6-chloro-1-(4-fluoro-2-(methylamino)phenyl)-3-(2-methyl-6-oxo-1,6-dihydropyridin-3-yl)-2,3-dihydroquinazolin-4(1H)-one] | ≤ 100 | –
28 | Cc1cc(F)ccc1N1CN(c2ccc(=O)[nH]c2C)C(=O)c2cc(O)c(C(F)(F)F)cc21 [Example 100, 1-(4-fluoro-2-methylphenyl)-6-hydroxy-3-(2-methyl-6-oxo-1,6-dihydropyridin-3-yl)-7-(trifluoromethyl)-2,3-dihydroquinazolin-4(1H)-one] | 794 to 7940 | –
29 | Cc1cc(F)ccc1N1CN(c2ccc(=O)[nH]c2C)C(=O)c2ccc(Cl)cc21 [Example 66, 7-chloro-1-(4-fluoro-2-methylphenyl)-3-(2-methyl-6-oxo-1,6-dihydropyridin-3-yl)-2,3-dihydroquinazolin-4(1H)-one] | ≤ 100 | –
30 | Cc1[nH]c(=O)ccc1N1CN([C@H]2CCOC[C@H]2C)c2cc(C(F)(F)F)ccc2C1=O [Example 281, 3-(2-Methyl-6-oxo-1,6-dihydropyridin-3-yl)-1-((3S,4S)-3-methyltetrahydro-2H-pyran-4-yl)-7-(trifluoromethyl)-2,3-dihydroquinazolin-4(1H)-one] | 126 to 631 | –
31 | Cc1[nH]c(=O)ccc1N1CN(c2ccc(F)cc2C(C)(C)C)c2ccc(Cl)cc2C1=O (single isomer, unassigned) [Example 294, 1-(2-(tert-Butyl)-4-fluorophenyl)-6-chloro-3-(2-methyl-6-oxo-1,6-dihydropyridin-3-yl)-2,3-dihydroquinazolin-4(1H)-one] | ≤ 100 | –
